Measured values from PubChem BioAssay AID2060615 (Molecular Pharmacology Branch, DTP, NCI, 2025).

System: 496974-208-R-J2-PDC complex spheroids, growth % test/control
Assay: Anticancer human tumor 496974-208-R-J2-PDC patient-derived pancreatic carcinoma cell line growth inhibition [CLK]
Conditions: for IC50: curve of first compound; for viability, T/C: stronger effect = lower value
Method in brief: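 Multi-cell-type spheroids combined patient-derived tumor cells with HUVEC endothelial cells and human mesenchymal stem cells. Paired agents were dosed in half-log steps down from about clinical Cmax, or from 10 microM where Cmax was unknown.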

[1] = second compound 0.0316 µM, first compound 0.0316 µM
[2] = second compound 0.0316 µM, first compound 0.1 µM
[3] = second compound 0.0316 µM, first compound 0.316 µM
[4] = second compound 0.0316 µM, first compound 1 µM
[5] = second compound 0.0316 µM, first compound 3.16 µM
[6] = second compound 0.0316 µM, first compound 10 µM
[7] = second compound 0.1 µM, first compound 0.0316 µM
[8] = second compound 0.1 µM, first compound 0.1 µM
[9] = second compound 0.1 µM, first compound 0.316 µM
[10] = second compound 0.1 µM, first compound 1 µM
[11] = second compound 0.1 µM, first compound 3.16 µM
[12] = second compound 0.1 µM, first compound 10 µM
[13] = second compound 0.316 µM, first compound 0.0316 µM
[14] = second compound 0.316 µM, first compound 0.1 µM
[15] = second compound 0.316 µM, first compound 0.316 µM
[16] = second compound 0.316 µM, first compound 1 µM
[17] = second compound 0.316 µM, first compound 3.16 µM
[18] = second compound 0.316 µM, first compound 10 µM
[19] = second compound 1 µM, first compound 0.0316 µM
[20] = second compound 1 µM, first compound 0.1 µM
[21] = second compound 1 µM, first compound 0.316 µM
[22] = second compound 1 µM, first compound 1 µM
[23] = second compound 1 µM, first compound 3.16 µM
[24] = second compound 1 µM, first compound 10 µM
[25] = second compound 3.16 µM, first compound 0.0316 µM
[26] = second compound 3.16 µM, first compound 0.1 µM
[27] = second compound 3.16 µM, first compound 0.316 µM
[28] = second compound 3.16 µM, first compound 1 µM
[29] = second compound 3.16 µM, first compound 3.16 µM
[30] = second compound 3.16 µM, first compound 10 µM
[31] = second compound 10 µM, first compound 0.0316 µM
[32] = second compound 10 µM, first compound 0.1 µM
[33] = second compound 10 µM, first compound 0.316 µM
[34] = second compound 10 µM, first compound 1 µM
[35] = second compound 10 µM, first compound 3.16 µM
[36] = second compound 10 µM, first compound 10 µM
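Further: spheroids exposed to the drugs for 7 days before readout.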
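Wherever viability, T/C is given: 100% = DMSO vehicle control wells.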

C=CC(=O)N1CCN(c2nc(=O)n(-c3c(C)ccnc3C(C)C)c3nc(-c4c(O)cccc4F)c(F)cc23)C(C)C1 (stereo unspecified) + CNC(=O)c1ccc(Nc2nc(OC3CCCC3)c3c(-c4ccc5nc(C)oc5c4)c[nH]c3n2)c(OC)c1
IC50 (second compound 0.0316 µM): > 10 µM | IC50 (second compound 0.1 µM): > 10 µM | IC50 (second compound 0.316 µM): > 10 µM | IC50 (second compound 1 µM): > 10 µM | IC50 (second compound 3.16 µM): 7.28 µM | IC50 (second compound 10 µM): 4.7 µM | viability, T/C [1]: 106% | viability, T/C [2]: 95.9% | viability, T/C [3]: 93.6% | viability, T/C [4]: 107% | viability, T/C [5]: 102% | viability, T/C [6]: 85.7% | viability, T/C [7]: 71.5% | viability, T/C [8]: 67.4% | viability, T/C [9]: 78.5% | viability, T/C [10]: 77.1% | viability, T/C [11]: 73% | viability, T/C [12]: 64.8% | viability, T/C [13]: 78.8% | viability, T/C [14]: 76.5% | viability, T/C [15]: 71% | viability, T/C [16]: 76.2% | viability, T/C [17]: 71.1% | viability, T/C [18]: 53.3% | viability, T/C [19]: 63.2% | viability, T/C [20]: 62.8% | viability, T/C [21]: 67.7% | viability, T/C [22]: 68.8% | viability, T/C [23]: 66% | viability, T/C [24]: 49% | viability, T/C [25]: 51.6% | viability, T/C [26]: 62.4% | viability, T/C [27]: 52.3% | viability, T/C [28]: 58.5% | viability, T/C [29]: 55% | viability, T/C [30]: 42.7% | viability, T/C [31]: 62% | viability, T/C [32]: 51.5% | viability, T/C [33]: 51.6% | viability, T/C [34]: 54.3% | viability, T/C [35]: 55.7% | viability, T/C [36]: 41%

CCCS(=O)(=O)Nc1ccc(F)c(C(=O)c2c[nH]c3ncc(-c4ccc(Cl)cc4)cc23)c1F + CNC(=O)c1ccc(Nc2nc(OC3CCCC3)c3c(-c4ccc5nc(C)oc5c4)c[nH]c3n2)c(OC)c1
IC50 (second compound 0.0316 µM): 6.39 µM | IC50 (second compound 0.1 µM): 6.36 µM | IC50 (second compound 0.316 µM): > 10 µM | IC50 (second compound 1 µM): 2.59 µM | IC50 (second compound 3.16 µM): 0.0681 µM | IC50 (second compound 10 µM): < 0.0316 µM | viability, T/C [1]: 94.7% | viability, T/C [2]: 73.7% | viability, T/C [3]: 115% | viability, T/C [4]: 100% | viability, T/C [5]: 91% | viability, T/C [6]: 23.6% | viability, T/C [7]: 71.5% | viability, T/C [8]: 47.6% | viability, T/C [9]: 78.6% | viability, T/C [10]: 86% | viability, T/C [11]: 78.2% | viability, T/C [12]: 35.6% | viability, T/C [13]: 70.7% | viability, T/C [14]: 45.4% | viability, T/C [15]: 76.3% | viability, T/C [16]: 71.2% | viability, T/C [17]: 78.2% | viability, T/C [18]: 29.6% | viability, T/C [19]: 51.2% | viability, T/C [20]: 44.1% | viability, T/C [21]: 64.5% | viability, T/C [22]: 69.5% | viability, T/C [23]: 66.2% | viability, T/C [24]: 22.4% | viability, T/C [25]: 52% | viability, T/C [26]: 26% | viability, T/C [27]: 61.9% | viability, T/C [28]: 63.3% | viability, T/C [29]: 53.1% | viability, T/C [30]: 19.8% | viability, T/C [31]: 50.7% | viability, T/C [32]: 30.5% | viability, T/C [33]: 58.6% | viability, T/C [34]: 61.7% | viability, T/C [35]: 64% | viability, T/C [36]: 27.2%

COC1C=CCC(C)C(C)S(=O)(=O)NC(=O)c2ccc3c(c2)N(CC2CCC21)CC1(CCCc2cc(Cl)ccc21)CO3 (stereo unspecified) + CNC(=O)c1ccc(Nc2nc(OC3CCCC3)c3c(-c4ccc5nc(C)oc5c4)c[nH]c3n2)c(OC)c1
IC50 (second compound 0.0316 µM): 5.11 µM | IC50 (second compound 0.1 µM): 3.49 µM | IC50 (second compound 0.316 µM): 0.19 µM | IC50 (second compound 1 µM): 0.0521 µM | IC50 (second compound 3.16 µM): 0.0404 µM | IC50 (second compound 10 µM): 0.0409 µM | viability, T/C [1]: 103% | viability, T/C [2]: 60.8% | viability, T/C [3]: 87.7% | viability, T/C [4]: 71.9% | viability, T/C [5]: 70% | viability, T/C [6]: 26.3% | viability, T/C [7]: 76.7% | viability, T/C [8]: 55.6% | viability, T/C [9]: 69.1% | viability, T/C [10]: 60.2% | viability, T/C [11]: 53.1% | viability, T/C [12]: 29.7% | viability, T/C [13]: 50.7% | viability, T/C [14]: 57.1% | viability, T/C [15]: 46.9% | viability, T/C [16]: 41.3% | viability, T/C [17]: 38.1% | viability, T/C [18]: 49.9% | viability, T/C [19]: 59.7% | viability, T/C [20]: 36.7% | viability, T/C [21]: 39.8% | viability, T/C [22]: 34.4% | viability, T/C [23]: 38% | viability, T/C [24]: 30.6% | viability, T/C [25]: 53.5% | viability, T/C [26]: 36.3% | viability, T/C [27]: 35% | viability, T/C [28]: 33% | viability, T/C [29]: 33.3% | viability, T/C [30]: 29.7% | viability, T/C [31]: 53.9% | viability, T/C [32]: 36.8% | viability, T/C [33]: 34.2% | viability, T/C [34]: 31.6% | viability, T/C [35]: 30.1% | viability, T/C [36]: 24.1%
